These results are taken from US12492197B2, “3,5-disubstituted pyrazole compounds as kinase inhibitors and uses thereof” (IMPACT THERAPEUTICS (SHANGHAI), INC, priority 2019, dated 2025).

In test [1] the target is T1, CHK1 kinase (Homo sapiens, UniProt O14757).
T1 construct: purchased Promega V1941
T1 sequence (O14757 1-476): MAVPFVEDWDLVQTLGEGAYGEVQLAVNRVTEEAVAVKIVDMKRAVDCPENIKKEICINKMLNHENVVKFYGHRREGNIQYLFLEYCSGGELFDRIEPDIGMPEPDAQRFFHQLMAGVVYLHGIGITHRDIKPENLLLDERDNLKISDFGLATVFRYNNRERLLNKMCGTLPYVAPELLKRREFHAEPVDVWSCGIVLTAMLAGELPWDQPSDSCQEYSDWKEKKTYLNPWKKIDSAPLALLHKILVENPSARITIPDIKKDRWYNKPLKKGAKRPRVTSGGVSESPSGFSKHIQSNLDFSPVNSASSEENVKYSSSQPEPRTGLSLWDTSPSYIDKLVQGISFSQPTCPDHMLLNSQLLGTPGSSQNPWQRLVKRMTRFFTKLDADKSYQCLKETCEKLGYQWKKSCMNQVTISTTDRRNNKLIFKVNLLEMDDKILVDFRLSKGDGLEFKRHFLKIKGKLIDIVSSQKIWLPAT
Nature of the test: CHK1 kinase inhibition, ADP-Glo kinase assay. Format: biochemical. The settings on record: ATP 10 μM, CHK1 1 ng/well; for inhibition at 0.01 µM: compound concentration 10 nM, read-out: Inh % (inhibitory effect on CHK1 kinase activity); for IC50: read-out: IC50 (inhibitory effect on CHK1 kinase activity). As for the experimental part:
2 μL of kinase CHK1 (#V1941, Promega), 1 μL of compound diluted with buffer, and 2 μL of ATP substrate was successively added to a 384-well plate (final concentration of CHK1 was 1 ng/well, ATP was 10 μM). The positive control wells contained CHK1, ATP and DMSO whereas the negative control wells contained ATP, DMSO without enzyme. The mixtures were centrifuged at 1000 rpm for 1 minute and kept in darkness at room temperature for 1 hour to react. Then, 5 μL of ADP-Glo reagent was added to each well and incubated at room temperature for 40 minutes. At the end of incubation, 10 μL of kinase detection reagent was added to each well, and the relative chemiluminescence values (RLU) were measured on Varioskan® Flash (Thermo). The following calculation was performed: Inhibition rate %=(RLU of positive control−RLU of compound)/(RLU of positive control−RLU of negative control)×100. Data were analyzed using GraphPad Prism6.0 and fitted using the curve equation: Y=Bottom+(Top-Bottom)/(1+10^((Log IC50−X)*HillSlope)), and IC50 values were calculated.
(In general: In ADP-Glo the light output rises with the ADP produced.)

The subject of test [2] is human breast cancer cell HCC1806. Nature of the test: Proliferation of HCC1806 cells, MTT assay. The format is cell-based. The note with it: HCC1806, 72 h, 3 days treatment, read-out: IC50 (inhibition of proliferation of HCC1806). On the procedure:
Newly revived HCC1806 cells (purchased from Guangzhou Genio) were cultured and passaged for at least three generations before use. Cells were used at 90% confluency for experiments. Cells were digested with trypsinase and centrifuged at 800 rpm for 5 minutes. The cell pellets were resuspended in fresh RPMI1640 medium and cells were counted. Cells were seeded on 96-well cell culture plates at 2000 cells/well and incubated overnight at 37° C., 5% CO2. The stock solutions of the test substances (including the test compounds and the reference compound) were serially diluted to 8 concentrations with DMSO at a ratio of 1:3. Five μL of each of the serially diluted solutions were added to 120 μL of medium (diluted by 25 times) and mixed by shaking. […] The cell culture plates were returned to incubator at 37° C., 5% CO2 for 3 days. At the end of treatment the cell viability was determined by MTT colorimetric assay. Cell culture medium in each well was replaced by 100 μL/well of serum-free fresh medium containing MTT (0.5 mg/mL), and the culture was continued for additional 4 hours.
(§1) Data was analyzed by GraphPad Prism 6.0. The inhibitory effects of compounds on cell proliferation were plotted based on cell viability vs. the logarithm of compound concentration. Cell viability %=(ODcompound−ODbackground)/(ODDMSO−ODbackground)×100.

Test [3] deals with human colon cancer cell LoVo. Nature of the test: Proliferation of LoVo cells, MTT assay. Format: cell-based. The settings on record: 96 h, 4 days treatment, read-out: IC50 (inhibition of proliferation of LoVo). On the procedure:
Newly revived LoVo cells (purchased from Shanghai Cell Institute) were cultured and passaged for at least three generations before use. Cells were used at 90% confluence for experiment. Cells were digested with trypsinase and centrifuged at 800 rpm for 5 minutes and the supernatant was discarded. The cell pellets were resuspended in fresh RPMI1640 medium and counted. Cells were seeded on 96-well cell culture plates at 5000 cells/well and incubated overnight at 37° C., 5% CO2. The stock solutions of the test substances (including the test compounds and the reference compound) were serially diluted to 8 concentrations with DMSO at a ratio of 1:3. 5 μL of each series diluted solutions was added to 120 μL of medium (diluted by 25 times) and mixed by shaking. […] The cell culture plates were returned to incubator at 37° C. and 5% CO2 for 4 days. At the end of treatment, the cell viability was determined by MTT colorimetric assay. Cell culture medium in each well was replaced by 100 μL/well of serum-free DMEM medium containing MTT (0.5 mg/mL), and the culture was continued for additional 4 hours. Medium was then discarded and 100 μL/well of DMSO was added.
as §1
For orientation: Formazan colour is commonly taken as a measure of viable cells.

`COc1cnc(Nc2cc(-c3c(OC)cccc3OC[C@H]3CCCNC3)[nH]n2)cn1` [Example 26, (S)-5-methoxy-N-(5-(2-methoxy-6-(piperidin-3-ylmethoxy)phenyl)-1H-pyrazol-3-yl)pyrazin-2-amine]: the inhibition at 0.01 µM in test [1] is 93%. In addition, the IC50 in test [2] was found to be 118 nM; in test [3], 103 nM.

Regarding `CCc1cnc(Nc2cc(-c3c(OC)cccc3OC[C@H]3CCCNC3)[nH]n2)cn1` [Example 27, (S)-5-ethyl-N-(5-(2-methoxy-6-(piperidin-3-ylmethoxy)phenyl)-1H-pyrazol-3-yl)pyrazin-2-amine], the inhibition at 0.01 µM in test [1] is 95%. In addition, the IC50 in test [2] was 129 nM; in test [3], 83.8 nM.

Regarding `COc1cccc(OC[C@H]2CCCNC2)c1-c1cc(Nc2cnc(C#N)c(C)n2)n[nH]1` [Example 28, (S)-5-((5-(2-methoxy-6-(piperidin-3-ylmethoxy)phenyl)-1H-pyrazol-3-yl)amino)-3-methylpyrazine-2-carbonitrile], the IC50 in test [1] came to 0.3 nM; in test [2], 42.2 nM; in test [3] it was 42.5 nM.

With `COc1cccc(OCC2CNC2)c1-c1cc(Nc2cnc(C#N)cn2)n[nH]1` [Example 31, 5-((5-(2-(azetidin-3-ylmethoxy)-6-methoxyphenyl)-1H-pyrazol-3-yl)amino)pyrazine-2-carbonitrile], the IC50 in test [1] came to 0.38 nM; in test [2] it was 6.4 nM; in test [3], 5.6 nM.

Consider `COc1cccc(OC[C@H]2CCCN(C)C2)c1-c1cc(Nc2cnc(C#N)cn2)n[nH]1` [Example 32, (S)-5-((5-(2-methoxy-6-((1-methylpiperidin-3-yl)methoxy)phenyl)-1H-pyrazol-3-yl)amino)pyrazine-2-carbonitrile], for which the inhibition at 0.01 µM in test [1] was 91%. Also, the IC50 was found to be 31.7 nM in test [2] and 25.6 nM in test [3].

For the compound `COc1cccc(OC[C@H]2CCCCN2)c1-c1cc(Nc2cnc(C#N)cn2)n[nH]1` [Example 33, (R)-5-((5-(2-methoxy-6-(piperidin-2-ylmethoxy)phenyl)-1H-pyrazol-3-yl)amino)pyrazine-2-carbonitrile], in test [1], the inhibition at 0.01 µM was found to be 97%. The IC50 in test [2] was found to be 32.4 nM; in test [3], 26 nM.

As for `COc1cccc(OC[C@H]2CCCOC2)c1-c1cc(Nc2cnc(C#N)cn2)n[nH]1` [Example 34, (S)-5-((5-(2-methoxy-6-((tetrahydro-2H-pyran-3-yl)methoxy)phenyl)-1H-pyrazol-3-yl)amino)pyrazine-2-carbonitrile], in test [1], the inhibition at 0.01 µM stood at 69%. In addition, the values for the IC50 in test [2] and in test [3] were 102 nM and 64.9 nM, respectively.

As for `CCOc1cccc(OC[C@H]2CCCNC2)c1-c1cc(Nc2cnc(C#N)cn2)n[nH]1` [Example 35, (S)-5-((5-(2-ethoxy-6-(piperidin-3-ylmethoxy)phenyl)-1H-pyrazol-3-yl)amino)pyrazine-2-carbonitrile], the IC50 in test [1] was determined as 1.78 nM; in test [2] it was 21.6 nM; in test [3], 21.2 nM.

`CC(C)Oc1cccc(OC[C@H]2CCCNC2)c1-c1cc(Nc2cnc(C#N)cn2)n[nH]1` [Example 36, (S)-5-((5-(2-isopropoxy-6-(piperidin-3-ylmethoxy)phenyl)-1H-pyrazol-3-yl)amino)pyrazine-2-carbonitrile]: the inhibition at 0.01 µM in test [1] was found to be 63%. Further, the figures for the IC50 in test [2] and in test [3] were 698 nM and 807 nM, respectively.

As for `COc1c(F)ccc(OC[C@H]2CCCNC2)c1-c1cc(Nc2cnc(C#N)cn2)n[nH]1` [Example 37, (S)-5-((5-(3-fluoro-2-methoxy-6-(piperidin-3-ylmethoxy)phenyl)-1H-pyrazol-3-yl)amino)pyrazine-2-carbonitrile], the IC50 was 0.77 nM in test [1], 30.5 nM in test [2] and 28.8 nM in test [3].

Regarding `COc1cc(F)cc(OC[C@H]2CCCNC2)c1-c1cc(Nc2cnc(C#N)cn2)n[nH]1` [Example 38, (S)-5-((5-(4-fluoro-2-methoxy-6-(piperidin-3-ylmethoxy)phenyl)-1H-pyrazol-3-yl)amino)pyrazine-2-carbonitrile], the IC50 in test [1] is 0.52 nM; in test [2], 3.5 nM; in test [3], 3.2 nM.

For the compound `COc1cc(F)cc(OC[C@H]2CCNC2)c1-c1cc(Nc2cnc(C#N)cn2)n[nH]1` [Example 39, (S)-5-((5-(4-fluoro-2-methoxy-6-(pyrrolidin-3-ylmethoxy)phenyl)-1H-pyrazol-3-yl)amino)pyrazine-2-carbonitrile], the IC50 came to 0.2 nM in test [1], 1 nM in test [2] and 1 nM in test [3].

Take `COc1cc(Cl)cc(OC[C@H]2CCCNC2)c1-c1cc(Nc2cnc(C#N)cn2)n[nH]1` [Example 40, (S)-5-((5-(4-chloro-2-methoxy-6-(piperidin-3-ylmethoxy)phenyl)-1H-pyrazol-3-yl)amino)pyrazine-2-carbonitrile]: the IC50 amounted to 0.88 nM in test [1], 5.5 nM in test [2] and 6.6 nM in test [3].

Regarding `COc1cc(Br)cc(OC[C@H]2CCCNC2)c1-c1cc(Nc2cnc(C#N)cn2)n[nH]1` [Example 41, (S)-5-((5-(4-bromo-2-methoxy-6-(piperidin-3-ylmethoxy)phenyl)-1H-pyrazol-3-yl)amino)pyrazine-2-carbonitrile], the IC50 in test [1] was found to be 0.85 nM; in test [2], 4.4 nM; in test [3] it was 5.1 nM.

On to `COc1c(C)ccc(OC[C@H]2CCCNC2)c1-c1cc(Nc2cnc(C#N)cn2)n[nH]1` [Example 42, (S)-5-((5-(2-methoxy-3-methyl-6-(piperidin-3-ylmethoxy)phenyl)-1H-pyrazol-3-yl)amino)pyrazine-2-carbonitrile], for which the inhibition at 0.01 µM in test [1] was 85%. The IC50 in test [2] stood at 69.2 nM; in test [3] it was 66.6 nM.

As for `COc1cc(C)cc(OC[C@H]2CCCNC2)c1-c1cc(Nc2cnc(C#N)cn2)n[nH]1` [Example 43, (S)-5-((5-(2-methoxy-4-methyl-6-(piperidin-3-ylmethoxy)phenyl)-1H-pyrazol-3-yl)amino)pyrazine-2-carbonitrile], the IC50 in test [1] came to 1.17 nM; in test [2] it was 1.6 nM; in test [3] it was 1.6 nM.

As for `COc1cc(C)cc(OC[C@@H]2CNCCO2)c1-c1cc(Nc2cnc(C#N)cn2)n[nH]1` [Example 44, (S)-5-((5-(2-methoxy-4-methyl-6-(morpholin-2-ylmethoxy)phenyl)-1H-pyrazol-3-yl)amino)pyrazine-2-carbonitrile], the results for the IC50 in test [1], in test [2] and in test [3] were 0.93 nM, 13.3 nM and 18 nM, respectively.
